Experimental data published in article PMC9856044 (Biomolecules, 2023).

Columns and labels:
[1] = system: Tel22 (DNA, G4) AGGGTTAGGGTTAGGGTTAGGG; experiment: UV thermal melting, 260 nm; conditions: Na+ (sodium cacodylate, I = 0.1 M); pH 7.0; Tel22 2 µM, r = 1.0 (compound 2 µM)
Tel22 G-quadruplex [2] = experiment: Thermal melting of Tel22 in sodium cacodylate buffer; type: binding, human; conditions: Tel22, r = 1.0, sodium cacodylate buffer, pH = 7.0, I = 0.1 mol dm^−3; error ± 0.5 °C
Procedure: (§1) Thermal melting curves for DNA, RNA and their complexes with studied compounds were determined as previously described by following the absorption change at 260 nm as a function of temperature. The absorbance of the ligands was subtracted from every curve and the absorbance scale was normalized. Tm values are the midpoints of the transition curves determined from the maximum of the first derivative and checked graphically by the tangent method. The ∆Tm values were calculated by subtracting Tm of the free nucleic acid from Tm of the complex. Every ∆Tm value here reported was the average of two measurements. The error in ∆Tm is ±0.5 °C. 5′-AGGG(TTAGGG)3–3′(Tel22) was obtained from IDT (Integrated DNA Technologies, Coralville, IA, USA). Tel22 was dissolved in 0.1 M either in sodium cacodylate or potassium phosphate buffer. The starting Tel22 oligonucleotide solution was first heated up to 95 °C for 10 min, then slowly cooled to 10 °C at the cooling rate of 1 °C/min to allow DNA oligonucleotide to adopt a G-quadruplex structure. The G-quadruplex structure was confirmed by thermal melting and CD spectra. The concentration of G quadruplex was expressed in terms of oligonucleotide structure. In fluorimetric titrations, aliquots of Tel 22 solution were added to the solution of ligands (c ~ 2 × 10^−7 M, in SI).

[3] = system: Tel22 (DNA, G4) AGGGTTAGGGTTAGGGTTAGGG; experiment: fluorescence titration (SPECFIT); conditions: Na+ (sodium cacodylate, I = 0.1 M); pH 7.0, 25 °C; site 1 of 2
[4] = system: Tel22 (DNA, G4) AGGGTTAGGGTTAGGGTTAGGG; experiment: fluorescence titration; conditions: K+ (potassium phosphate, I = 0.1 M); pH 7.0, 25 °C; emission increase, no constant fitted
SK-OV-3 cells = experiment: MTT cytotoxicity assay, SK-OV-3; type: cell-based; conditions: Homo sapiens, SK-OV-3, 72 h incubation, ± SD
Procedure: (§2) Human cervical carcinoma HeLa (GIBCO BRL, Invitrogen, Waltham, MA, USA), human melanoma MDA-MB-435S and human ovarian adenocarcinoma SK-OV-3 (ATCC-LGC Standards GmbH, Wesel, Germany) cell lines were purchased from indicated cell culture banks. Normal human skin fibroblasts were isolated from the upper arm of a donor at the Neurochemical Laboratory, Department of Chemistry and Biochemistry, School of Medicine, University of Zagreb. HeLa, MDA-MB-435S and fibroblasts were grown in Dulbecco’s Modified Eagle’s Medium (DMEM; Sigma-Aldrich, St. Louis, MI, USA) while the SK-OV-3 cell line was grown in McCoy’s 5A medium (Capricorn Scientific, Ebsdorfergrund, Germany). All media were supplemented with 10% fetal bovine serum (FBS; Sigma-Aldrich) and 50 I.U./mL penicillin and 50 μg/mL streptomycin. Cells were cultured in a humidified atmosphere of 5% CO2 at 37 °C and were sub-cultured every 3–4 days. HeLa, MDA-MB-435S, SK-OV-3 cells and fibroblasts were seeded in 96 well plates. Twenty-four hours later the cells were treated, in quadruplicate, with different concentrations of compounds (dissolved in DMSO, kept at 4 °C and protected from light). Following 72 h of incubation at 37 °C, the medium was aspired and modified 3-(4,5-dimethylthiazol-2-yl)-2,5-diphenyltetrazolium bromide (MTT) assay was used to determine the cytotoxic effect of the tested compounds. Three hours later, formazan crystals were dissolved in DMSO (0.17 mL/well), the plates were mechanically agitated for 20 min and the optical density at 600 nm was determined on a microtiter plate reader (Awareness Technology Inc., Palm City, FL, USA). The experiments were repeated three times.

MDA-MB-435S cells = experiment: MTT cytotoxicity assay, MDA-MB-435S; type: cell-based; conditions: Homo sapiens, 72 h incubation, ± SD
Procedure: as §2

HeLa cells = experiment: MTT cytotoxicity assay, HeLa; type: cell-based; conditions: Homo sapiens, 72 h incubation, ± SD
Procedure: as §2

[5] = Solubility and aggregation (UV/Vis characterization); type: physicochemical; conditions: sodium cacodylate buffer, I = 0.05 mol dm^−3, pH = 7.0; UV/Vis
Procedure: The UV/vis spectra were recorded on a Varian Cary 100 Bio spectrophotometer (Agilent, Santa Clara, CA, USA), CD spectra on JASCO J815 spectrophotometer (ABL&E Handels GmbH, Wien, Austria) and fluorescence spectra on a Varian Cary Eclipse spectrophotometer (Agilent, Santa Clara, CA, USA) at 25 °C using appropriate 1 cm path quartz cuvettes.
Studied compounds, 1–6 were soluble (c = 8 × 10^−4 mol dm^−3) in DMSO. […] Therefore, the stock solution of 2 was prepared fresh before use. The experiments were done in aqueous buffer (sodium cacodylate buffer, I = 0.05 mol dm^−3; pH = 7.0).
However, the shape of UV/Vis spectra of cyanine 2 changed with increasing concentration (calibration experiment in Figure S2 in SI). In addition to the dominant maximum at 432 nm (which most likely corresponds to the monomer form of the dye), the absorption band at 413 nm becomes more intense (Figure S2 in SI). Presumably, it corresponds to the aggregated form (H-aggregate). Based on the existence of an absorption band at 432 nm, only the monomer dye form is visible at high temperature (95 °C) (Figure S8b in SI). However, after cooling the solution to 25 °C, an additional band appears at 413 nm, which corresponds to the aggregated dye form.

[6] = molecular target: Tel22 (5′-AGGG(TTAGGG)3–3′) G-quadruplex; experiment: Fluorimetric titration with Tel22 in sodium cacodylate buffer (Na+ solution); type: binding, human; conditions: Tel22, sodium cacodylate buffer, pH = 7.0, I = 0.1 mol dm^−3; SPECFIT fit of fluorescence titration
Procedure: (§3) Materials. Polynucleotides were purchased as noted: poly A–poly U, calf thymus ctDNA, poly(dAdT)2 and poly(dGdC)2 (Sigma-Aldrich, St. Louis, MI, USA). Polynucleotides were dissolved in Na-cacodylate buffer, I = 0.05 mol dm^−3, pH = 7.0. The calf thymus ctDNA was additionally sonicated and filtered through a […]. Polynucleotide concentration was determined spectroscopically as the concentration of phosphates. Spectrophotometric titrations were performed at pH = 7.0 (I = 0.05 mol dm^−3, sodium cacodylate buffer) by adding aliquots of polynucleotide solution into the solution of the studied compound for fluorimetric experiments and CD experiments were done by adding aliquots of the compound stock solution into the solution of a polynucleotide. In fluorimetric experiments, an excitation wavelength of λexc = 425, 431, 423, 427, 406 and 407 nm, respectively, was used to avoid the inner filter effect caused due to increasing absorbance of the polynucleotide. Emission was collected in the range λem = 400–700 nm. Values for Ka obtained by processing titration data using the Scatchard equation [27], all have satisfactory correlation coefficients (≥0.98).
as §1
(§4) Binding constants (log Ka) and stoichiometry of complexes were calculated from the fluorimetric data using non-linear least-square program SPECFIT [46], in the concentration range that corresponded to 20–80% complex formed.

Fibroblasts = experiment: MTT cytotoxicity assay, normal human skin fibroblasts; type: cell-based; conditions: Fibroblast, 72 h incubation, ± SD
Procedure: as §2

ds-DNA and ds-RNA = experiment: Thermal melting of ds-DNA and ds-RNA; type: binding; conditions: r [compound]/[nucleotide phosphate] = 0.1
Procedure: as §1
Binding abilities of 1–6 compounds were further explored by thermal melting experiments. […]

[7] = molecular target: Tel22 (5′-AGGG(TTAGGG)3–3′) G-quadruplex; experiment: Fluorimetric titration with Tel22 in potassium phosphate buffer (K+ solution); type: binding, human; conditions: Tel22, K+ solution; no accurate fit possible
Procedure: as §3, §1, §4

Tel22 G-quadruplex [8] = experiment: Thermal melting of Tel22 in potassium phosphate buffer; type: binding, human; conditions: Tel22, r = 1.0, potassium phosphate buffer, pH = 7.0, I = 0.1 mol dm^−3; error ±0.5 °C
Procedure: as §1

In the case of `C[n+]1c(C=C2Sc3ccccc3N2CCCS(=O)(=O)[O-])[se]c2ccccc21` [Compound 1, 3-(2-((3-methylbenzo[d][1,3]selenazol-3-ium-2-yl)methylene)benzo[d]thiazol-3(2H)-yl)propane-1-sulfonate], the “∆Tm” value [1] is reported as 0 °C, the “∆Tm” value (Tel22 G-quadruplex [2]) is reported as 0 °C and the logKa1 [3] is reported as 6.93 ± 0.25. For the same molecule, the binding [4] was “yes”, the IC50 (SK-OV-3 cells) was 32.8 ± 1.09 µM and the IC50 (MDA-MB-435S cells) was 18.5 ± 1.23 µM. For the same molecule, the IC50 (HeLa cells) was 31.9 ± 1.14 µM, the melting point was greater than 300 °C and the “Aggregation in aqueous buffer” value [5] was “do not form aggregates”. The “logKa1 (L + G ⇆ LG)” value [6] was 6.93 ± 0.25, the “logKa2 (LG + G ⇆ LG2)” value [6] was 5.69 ± 0.23 and the IC50 (Fibroblasts) was greater than 40 µM.
With `C[n+]1c(/C=C2\Sc3ccccc3N2CCS)[se]c2ccccc21` [Compound 6, 2-((3-(2-mercaptoethyl)benzo[d]thiazol-2(3H)-ylidene)methyl)-3-methylbenzo[d][1,3]selenazol-3-ium methosulphate] the “Effect on DNA/RNA thermal stability” value (ds-DNA and ds-RNA) was “did not show any impact”, the “∆Tm” value (Tel22 G-quadruplex [2]) was 2.0 °C and the IC50 (SK-OV-3 cells) was greater than 40 µM. The IC50 (MDA-MB-435S cells) was 32.8 ± 3.76 µM, the IC50 (HeLa cells) was 30.7 ± 4.07 µM and the “log Ka (indicated by steeper slope of titration curves)” value [7] was no less than 7. The “∆Tm” value (Tel22 G-quadruplex [8]) was 6.9 °C, the “Aggregation in aqueous buffer” value [5] was “significantly aggregate” and the IC50 (Fibroblasts) was greater than 40 µM.
